According to patent US20260317324A1, “BIFUNCTIONAL COMPOUNDS FOR DEGRADING BRAF VIA UBIQUITIN PROTEOSOME PATHWAY” (Nurix Therapeutics, Inc., priority 2023, published 2026):

Columns and labels:
Assay type in all cases: cell-based
BRAF V600E = molecular target: T1, BRAF V600E (Homo sapiens, UniProt P15056, V600E); assay: BRAF HiBiT degradation assay, C-terminal HiBiT-tagged BRAF V600E A375 cells (clone 1F10), Nano-Glo HiBiT Lytic assay; conditions: for Dmax: A-375
T1 construct: endogenous C-terminal HiBiT fusion tag on BRAF V600E allele; endogenous in cells; host or cells: A375 clone 1F10 (CRISPR-Cas9 knock-in of the HiBiT tag; parental A375 from ATCC)
Method in brief: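 Luminescence from the Nano-Glo HiBiT lytic read-out gave % BRAF V600E remaining versus DMSO-treated tagged cells, with untagged A375 as background. Clone 1F10 cells (10,000/well, 24 h pre-culture) received compound at 1 μM–0.01 nM in half-log steps, 0.2% DMSO; curve fits gave DC50 at Y=50, plus observed Dmax.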

BRAF G466V = molecular target: T2, BRAF G466V (Homo sapiens, UniProt P15056, G466V); assay: BRAF HiBiT degradation assay, C-terminal HiBiT-tagged BRAF G466V overexpressed in HCT-116 BRAF−/− cells (clone 8), Nano-Glo HiBiT Lytic assay
T2 construct: Horizon Discovery (HCT-116 BRAF−/− cells); host or cells: HCT-116 BRAF−/− cells, clone 8, lentiviral transduction
Method in brief: (§1)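 Degradation was read by Nano-Glo HiBiT lytic luminescence, normalised to DMSO-treated tagged cells with wildtype HCT-116 as background. Test cells were lentiviral clones of HCT-116 BRAF−/− carrying HiBiT-tagged mutants in RPMI/10% FBS, given compound at 0.01 nM–1 μM in duplicate. Outputs are the curve-fitted concentration giving 50% degradation and the maximal observed degradation.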

BRAF G469A = molecular target: T3, BRAF G469A (Homo sapiens, UniProt P15056, G469A); assay: BRAF HiBiT degradation assay, C-terminal HiBiT-tagged BRAF G469A overexpressed in HCT-116 BRAF−/− cells (clone 34), Nano-Glo HiBiT Lytic assay
T3 construct: Horizon Discovery (HCT-116 BRAF−/− cells); host or cells: HCT-116 BRAF−/− cells, clone 34, lentiviral transduction
Method in brief: as §1

BRAF D594G = molecular target: T4, BRAF D594G (Homo sapiens, UniProt P15056, D594G); assay: BRAF HiBiT degradation assay, C-terminal HiBiT-tagged BRAF D594G overexpressed in HCT-116 BRAF−/− cells (clone 63), Nano-Glo HiBiT Lytic assay
T4 construct: Horizon Discovery (HCT-116 BRAF−/− cells); host or cells: HCT-116 BRAF−/− cells, clone 63, lentiviral transduction
Method in brief: as §1

[1] = A375 (BRAF V600E), DC50 at 50%: fitted conc. at Y=50
[2] = A375 (BRAF V600E), percentage protein degraded at maximal compound effect relative to DMSO
[3] = BRAF G466V, DC50 at 50%: fitted conc. at Y=50
[4] = HCT-116, BRAF G466V, percentage protein degraded at maximal compound effect relative to DMSO
[5] = Class 2, BRAF G469A, DC50 at 50%: fitted conc. at Y=50
[6] = HCT-116, Class 2, BRAF G469A, percentage protein degraded at maximal compound effect relative to DMSO
[7] = BRAF D594G, DC50 at 50%: fitted conc. at Y=50
[8] = HCT-116, BRAF D594G, percentage protein degraded at maximal compound effect relative to DMSO
[9] = A375 (BRAF V600E, Class 1), DC50 at 50% degradation
[10] = A375 (BRAF V600E, Class 1), observed Dmax, % protein degraded relative to DMSO control
[11] = BRAF G466V (Class 3), HCT-116 BRAF−/− cells, DC50 at 50% degradation
[12] = BRAF G466V (Class 3), HCT-116 BRAF−/− cells, observed Dmax relative to DMSO control
[13] = BRAF G469A (Class 2), HCT-116 BRAF−/− cells, DC50 at 50% degradation
[14] = BRAF G469A (Class 2), HCT-116 BRAF−/− cells, observed Dmax relative to DMSO control
[15] = BRAF D594G (Class 3), HCT-116 BRAF−/− cells, DC50 at 50% degradation
[16] = BRAF D594G (Class 3), HCT-116 BRAF−/− cells, observed Dmax relative to DMSO control

T4 sequence (P15056 whole entry D594G): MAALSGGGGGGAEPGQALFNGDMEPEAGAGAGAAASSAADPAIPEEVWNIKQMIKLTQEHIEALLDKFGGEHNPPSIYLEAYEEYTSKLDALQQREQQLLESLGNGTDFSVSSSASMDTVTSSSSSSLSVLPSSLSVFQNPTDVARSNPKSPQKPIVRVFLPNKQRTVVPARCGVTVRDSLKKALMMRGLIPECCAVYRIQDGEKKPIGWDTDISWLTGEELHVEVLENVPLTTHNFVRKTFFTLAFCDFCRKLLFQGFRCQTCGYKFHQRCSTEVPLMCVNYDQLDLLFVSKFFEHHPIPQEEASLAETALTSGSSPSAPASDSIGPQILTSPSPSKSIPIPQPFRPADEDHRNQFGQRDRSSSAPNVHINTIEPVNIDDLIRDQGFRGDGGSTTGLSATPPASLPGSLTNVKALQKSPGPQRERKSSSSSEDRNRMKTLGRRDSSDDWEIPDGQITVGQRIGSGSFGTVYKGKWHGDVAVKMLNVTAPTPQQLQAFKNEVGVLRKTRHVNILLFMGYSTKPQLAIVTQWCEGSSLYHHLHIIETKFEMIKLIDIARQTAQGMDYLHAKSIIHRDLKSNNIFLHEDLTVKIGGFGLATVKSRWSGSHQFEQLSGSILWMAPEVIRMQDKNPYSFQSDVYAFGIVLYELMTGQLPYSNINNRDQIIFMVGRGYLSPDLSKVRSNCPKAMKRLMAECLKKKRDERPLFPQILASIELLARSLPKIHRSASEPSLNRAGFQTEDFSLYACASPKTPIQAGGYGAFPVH
T2 sequence (P15056 whole entry G466V): as the sequence (P15056 whole entry D594G) above, with G466V, G594D counted along it
T1 sequence (P15056 whole entry V600E, the tested form may be a part): as the sequence (P15056 whole entry D594G) above, with G594D, V600E counted along it
T3 sequence (P15056 whole entry G469A): as the sequence (P15056 whole entry D594G) above, with G469A, G594D counted along it

SMILES | DC50 (BRAF V600E; [1]) [nM] | Dmax (BRAF V600E; [2]) [%] | DC50 (BRAF G466V; [3]) [nM] | Dmax (BRAF G466V; [4]) [%] | DC50 (BRAF G469A; [5]) [nM] | Dmax (BRAF G469A; [6]) [%] | DC50 (BRAF D594G; [7]) [nM] | Dmax (BRAF D594G; [8]) [%] | DC50 (BRAF V600E; [9]) [nM] | Dmax (BRAF V600E; [10]) [%] | DC50 (BRAF G466V; [11]) [nM] | Dmax (BRAF G466V; [12]) [%] | DC50 (BRAF G469A; [13]) [nM] | Dmax (BRAF G469A; [14]) [%] | DC50 (BRAF D594G; [15]) [nM] | Dmax (BRAF D594G; [16]) [%]
CCCS(=O)(=O)Nc1cccc(-c2nc(-c3ccc(N4CCN(CC5CCN(c6ccc([C@H]7CCC(=O)NC7=O)cc6)CC5)CC4)cc3)sc2-c2ccnc(N)n2)c1F [Compound 191, N-{3-[5-(2-aminopyrimidin-4-yl)-2-(4-{4-[(1-{4-[(3R)-2,6-dioxopiperidin-3-yl]phenyl}piperidin-4-yl)methyl]piperazin-1-yl}phenyl)-1,3-thiazol-4-yl]-2-fluorophenyl}propane-1-sulfonamide] | < 10 | > 70 | 10 to 50 | 30 to 70 | > 500 | 30 to 70 | > 500 | 30 to 70 | – | – | – | – | – | – | – | –
O=C1CCC(c2ccc(N3CCC(CN4CCCN(c5ccc(-n6cc(-c7cc(Cl)cc(NS(=O)(=O)N8CCCC8)c7F)c(-c7ccncc7)n6)c(F)c5)CC4)CC3)nc2)C(=O)N1 (racemic) [Compound 345, Rac-N-{5-chloro-3-[1-(4-{4-[(1-{5-[(3R)-2,6-dioxopiperidin-3-yl]pyridin-2-yl}piperidin-4-yl)methyl]-1,4-diazepan-1-yl}-2-fluorophenyl)-3-(pyridin-4-yl)-1H-pyrazol-4-yl]-2-fluorophenyl}pyrrolidine-1-sulfonamide] | – | – | – | – | – | – | – | – | < 10 | > 70 | > 500 | 30 to 70 | > 500 | < 30 | > 500 | < 30
C[C@@H]1CN(c2ccc(-n3cc(-c4cc(Cl)cc(NS(=O)(=O)N5CCCC5)c4F)c(-c4ccncc4)n3)cc2)CCN1CC1CCN(c2ccc(C3CCC(=O)NC3=O)cn2)CC1 (mixture of isomers) [Compound 268, N-(5-chloro-3-(1-(4-((R)-4-((1-(5-((RS)-2,6-dioxopiperidin-3-yl)pyridin-2-yl)piperidin-4-yl)methyl)-3-methylpiperazin-1-yl)phenyl)-3-(pyridin-4-yl)-1H-pyrazol-4-yl)-2-fluorophenyl)pyrrolidine-1-sulfonamide] | – | – | – | – | – | – | – | – | < 10 | > 70 | < 10 | > 70 | < 10 | > 70 | < 10 | > 70
CCN(C)S(=O)(=O)Nc1cccc(-c2nc(C(C)(C)C)sc2-c2ccnc(Nc3ccc(N4CCN(CC5CCN(c6ccc([C@H]7CCC(=O)NC7=O)cn6)CC5)CC4)cn3)n2)c1F [Compound 29, (3R)-3-{6-[4-({4-[6-({4-[2-tert-butyl-4-(3-{[ethyl(methyl)sulfamoyl]amino}-2-fluorophenyl)-1,3-thiazol-5-yl]pyrimidin-2-yl}amino)pyridin-3-yl]piperazin-1-yl}methyl)piperidin-1-yl]pyridin-3-yl}piperidine-2,6-dione] | 10 to 50 | > 70 | < 10 | > 70 | 10 to 50 | 30 to 70 | < 10 | 30 to 70 | – | – | – | – | – | – | – | –
CCCS(=O)(=O)Nc1cc(Cl)cc(-c2cn(-c3ccc(N4CCN(CC5CCN(c6ccc([C@H]7CCC(=O)NC7=O)cc6)CC5)[C@H](C)C4)cc3)nc2-c2ccncc2)c1F [Compound 275, N-[5-chloro-3-(1-{4-[(3R)-4-[(1-{4-[(3R)-2,6-dioxopiperidin-3-yl]phenyl}piperidin-4-yl)methyl]-3-methylpiperazin-1-yl]phenyl}-3-(pyridin-4-yl)-1H-pyrazol-4-yl)-2-fluorophenyl]propane-1-sulfonamide] | – | – | – | – | – | – | – | – | < 10 | > 70 | < 10 | > 70 | 10 to 50 | 30 to 70 | < 10 | 30 to 70
CCN(C)S(=O)(=O)Nc1cc(Cl)cc(-c2cn(-c3ccc(N4CCN(CC5CCN(c6ccc(N7CCC(=O)NC7=O)cc6)CC5)CC4)cn3)nc2-c2ccncc2)c1F [Compound 311, 1-(4-{4-[(4-{6-[4-(5-chloro-3-{[ethyl(methyl)sulfamoyl]amino}-2-fluorophenyl)-3-(pyridin-4-yl)-1H-pyrazol-1-yl]pyridin-3-yl}piperazin-1-yl)methyl]piperidin-1-yl}phenyl)-1,3-diazinane-2,4-dione] | – | – | – | – | – | – | – | – | 10 to 50 | > 70 | 50 to 500 | 30 to 70 | > 500 | 30 to 70 | 10 to 50 | 30 to 70
CCCS(=O)(=O)Nc1cccc(-c2cn(-c3ccc(N4CCC(CN5CCN(c6ccc(C7CCC(=O)NC7=O)cc6)CC5)CC4)cc3)nc2-c2ccncc2)c1F (racemic) [Compound 381, Rac-(R)—N-(3-(1-(4-(4-((4-(4-(2,6-dioxopiperidin-3-yl)phenyl)piperazin-1-yl)methyl)piperidin-1-yl)phenyl)-3-(pyridin-4-yl)-1H-pyrazol-4-yl)-2-fluorophenyl)propane-1-sulfonamide] | – | – | – | – | – | – | – | – | 10 to 50 | > 70 | 10 to 50 | 30 to 70 | 10 to 50 | 30 to 70 | < 10 | 30 to 70
CCCS(=O)(=O)Nc1cccc(-c2nc(C(C)(C)C)sc2-c2ccnc(Nc3cccc(OC4CCN(C(=O)C5CCN(c6cc(C7CCC(=O)NC7=O)ccn6)CC5)CC4)c3)n2)c1F (racemic) [Compound 100, Rac-N-[3-(2-tert-butyl-5-{2-[(3-{[1-(1-{4-[(3R)-2,6-dioxopiperidin-3-yl]pyridin-2-yl}piperidine-4-carbonyl)piperidin-4-yl]oxy}phenyl)amino]pyrimidin-4-yl}-1,3-thiazol-4-yl)-2-fluorophenyl]propane-1-sulfonamide] | < 10 | > 70 | > 500 | < 30 | > 500 | < 30 | 50 to 500 | 30 to 70 | – | – | – | – | – | – | – | –
O=C1CC[C@H](c2ccc(N3CCC(CN4CCN(c5ccc(-n6cc(-c7cc(Cl)cc(NS(=O)(=O)N8CC[C@@H](F)C8)c7F)c(-c7ccncc7)n6)cc5F)CC4)CC3)cc2)C(=O)N1 [Compound 367, (3R)—N-{5-chloro-3-[1-(4-{4-[(1-{4-[(3R)-2,6-dioxopiperidin-3-yl]phenyl}piperidin-4-yl)methyl]piperazin-1-yl}-3-fluorophenyl)-3-(pyridin-4-yl)-1H-pyrazol-4-yl]-2-fluorophenyl}-3-fluoropyrrolidine-1-sulfonamide] | – | – | – | – | – | – | – | – | < 10 | > 70 | < 10 | > 70 | < 10 | > 70 | < 10 | > 70
O=C1CCN(c2ccc(N3CCC(CN4CCN(c5ccc(-n6cc(-c7cc(Cl)cc(NS(=O)(=O)N8CC(F)C8)c7F)c(-c7ccncc7)n6)c(F)c5)CC4)CC3)cc2)C(=O)N1 [Compound 339, N-[5-chloro-3-(1-{4-[4-({1-[4-(2,4-dioxo-1,3-diazinan-1-yl)phenyl]piperidin-4-yl}methyl)piperazin-1-yl]-2-fluorophenyl}-3-(pyridin-4-yl)-1H-pyrazol-4-yl)-2-fluorophenyl]-3-fluoroazetidine-1-sulfonamide] | – | – | – | – | – | – | – | – | < 10 | > 70 | < 10 | 30 to 70 | > 500 | < 30 | 10 to 50 | 30 to 70
